Measurements: PubChem BioAssay AID330 (DTP/NCI, 2004)
Values joined by “and” are separate entries in the source; they are usually repeats but may differ in a detail not shown here. Equal entries are not always repeated. Inconclusive results and toxic doses are left out. The calls were made as follows: active = survival T/C of 150% or more; inactive = T/C below 125% in these data.

Tested on: P388 leukemia ip, CD2F1 mice, survival T/C
Assay: NCI In Vivo Anticancer Drug Screen. Data for tumor model P388 Leukemia (intraperitoneal) in CD2F1 (CDF1) mice
Conditions: endpoint: median survival time, higher = longer survival
Outline: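 Mice carrying the transplanted tumor received test compound or vehicle. Survival was recorded in each group, and the value is the treated-group measurement divided by that of the vehicle-treated control group.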

[1] = dose: 50.0 mg/kg/injection, schedule: Q01DX005 (ip), vehicle: Klucel (hydroxypropylcellulose) (HPC)
[2] = dose: 100.0 mg/kg/injection, schedule: Q01DX005 (ip), vehicle: Klucel (hydroxypropylcellulose) (HPC)
[3] = dose: 200.0 mg/kg/injection, schedule: Q01DX005 (ip), vehicle: Klucel (hydroxypropylcellulose) (HPC)
[4] = dose: 100.0 mg/kg/injection, schedule: Q01DX001 (ip), vehicle: saline with Tween-80
[5] = dose: 200.0 mg/kg/injection, schedule: Q01DX001 (ip), vehicle: saline with Tween-80
[6] = dose: 400.0 mg/kg/injection, schedule: Q01DX001 (ip), vehicle: saline with Tween-80
[7] = dose: 50.0 mg/kg/injection, schedule: Q01DX009 (ip), vehicle: saline with Tween-80
[8] = dose: 100.0 mg/kg/injection, schedule: Q01DX009 (ip), vehicle: saline with Tween-80
[9] = dose: 200.0 mg/kg/injection, schedule: Q01DX009 (ip), vehicle: saline with Tween-80
[10] = dose: 60.0 mg/kg/injection, schedule: Q01DX005 (ip), vehicle: saline with Tween-80
[11] = dose: 120.0 mg/kg/injection, schedule: Q01DX005 (ip), vehicle: saline with Tween-80
[12] = dose: 240.0 mg/kg/injection, schedule: Q01DX005 (ip), vehicle: saline with Tween-80
[13] = dose: 60.0 mg/kg/injection, schedule: Q01DX005 (ip), vehicle: saline
[14] = dose: 50.0 mg/kg/injection, schedule: Q01DX005 (ip), vehicle: saline
[15] = dose: 50.0 mg/kg/injection, schedule: Q01DX005 (ip), vehicle: saline with Tween-80
[16] = dose: 100.0 mg/kg/injection, schedule: Q01DX005 (ip), vehicle: saline with Tween-80
[17] = dose: 200.0 mg/kg/injection, schedule: Q01DX005 (ip), vehicle: saline with Tween-80
[18] = dose: 120.0 mg/kg/injection, schedule: Q01DX005 (ip), vehicle: saline

Measured: T/C

c1ccccc1
inactive: dose: 0.12 % in 0.5 ml injection vol, schedule: Q01DX009 (ip), vehicle: water 100 % of control | dose: 0.25 % in 0.5 ml injection vol, schedule: Q01DX009 (ip), vehicle: water 102 % of control | dose: 0.5 % in 0.5 ml injection vol, schedule: Q01DX009 (ip), vehicle: water 104 % of control | dose: 1.0 % in 0.5 ml injection vol, schedule: Q01DX009 (ip), vehicle: water 100 % of control | dose: 2.0 % in 0.5 ml injection vol, schedule: Q01DX009 (ip), vehicle: water 100 % of control and 102 % of control | dose: 4.0 % in 0.5 ml injection vol, schedule: Q01DX009 (ip), vehicle: water 99 % of control | dose: 8.0 % in 0.5 ml injection vol, schedule: Q01DX009 (ip), vehicle: water 100 % of control | dose: 16.0 % in 0.5 ml injection vol, schedule: Q01DX009 (ip), vehicle: water 95 % of control

COc1ccc(C2OC3=C(Nc4ccc([N+](=O)[O-])cc4N3)C2=O)c(OC)c1 (stereo not given)
inactive: [1] 93 % of control | [2] 101 % of control | [3] 101 % of control

COC(=O)C1=C/CCCN(CCC2OCC(CBr)O2)/C=C\1C(=O)OC (stereo not given)
inactive: [4] 99 % of control | [5] 102 % of control | [6] 98 % of control

CC(=O)OCC1OC(S[As](C)C)C(OC(C)=O)C(OC(C)=O)C1OC(C)=O (stereo not given)
inactive: dose: 25.0 mg/kg/injection, schedule: Q01DX009 (ip), vehicle: saline with Tween-80 114 % of control | [7] 111 % of control | [8] 116 % of control | [9] 124 % of control

CN(NC(=O)C(=O)NCc1ccco1)C(=O)Nc1ccc(Cl)cc1
inactive: [7] 103 % of control | [8] 100 % of control | [9] 92 % of control

COc1cc(NC(C)CCCNC(C)C)c2ncccc2c1 (stereo not given)
inactive: dose: 6.25 mg/kg/injection, schedule: Q01DX005 (ip), vehicle: saline with Tween-80 100 % of control | dose: 12.5 mg/kg/injection, schedule: Q01DX005 (ip), vehicle: saline with Tween-80 100 % of control

NC(=O)c1[nH]c(/N=N/c2nc[nH]c2C(N)=O)nc1N
inactive: dose: 50.0 mg/kg/injection, schedule: Q01DX009 (ip), vehicle: Klucel (hydroxypropylcellulose) (HPC) 99 % of control | dose: 100.0 mg/kg/injection, schedule: Q01DX009 (ip), vehicle: Klucel (hydroxypropylcellulose) (HPC) 99 % of control | dose: 200.0 mg/kg/injection, schedule: Q01DX009 (ip), vehicle: Klucel (hydroxypropylcellulose) (HPC) 93 % of control

CCOC(=O)c1ccc(NC(=O)OC2CCCC2)cc1
inactive: [10] 92 % of control | [11] 90 % of control | [12] 89 % of control

CC(C)Oc1nc(N2CCNCC2)nc2c1CCCC2
inactive: dose: 15.0 mg/kg/injection, schedule: Q01DX005 (ip), vehicle: saline 101 % of control | dose: 30.0 mg/kg/injection, schedule: Q01DX005 (ip), vehicle: saline 104 % of control | [13] 111 % of control and 90 % of control

CCOc1c(N=Nc2ccc(Br)cc2)c(C)nn1C(=S)S
inactive: dose: 60.0 mg/kg/injection, schedule: Q01DX005 (ip), vehicle: Klucel (hydroxypropylcellulose) (HPC) 105 % of control | dose: 120.0 mg/kg/injection, schedule: Q01DX005 (ip), vehicle: Klucel (hydroxypropylcellulose) (HPC) 109 % of control

CC1CCC(C(C)C)C(OC(=O)c2ccc[n+](C)c2)C1 (stereo not given)
inactive: dose: 12.5 mg/kg/injection, schedule: Q01DX005 (ip), vehicle: saline 105 % of control | dose: 25.0 mg/kg/injection, schedule: Q01DX005 (ip), vehicle: saline 116 % of control | [14] 100 % of control and 105 % of control

C#CC(O)C1CC1 (stereo not given)
inactive: dose: 100.0 mg/kg/injection, schedule: Q01DX001 (ip), vehicle: saline + Tween-80 + alcohol 101 % of control

CN1C(=O)C(CC(=O)O)(Cc2ccccc2)N(C(=O)c2ccccc2)[C@H]1C(C)(C)C (stereo not given in full)
inactive: [4] 112 % of control | [5] 94 % of control | [6] 108 % of control

O=C(O)CCSSCCCCS(=O)O
inactive: [14] 114 % of control | dose: 100.0 mg/kg/injection, schedule: Q01DX005 (ip), vehicle: saline 114 % of control | dose: 200.0 mg/kg/injection, schedule: Q01DX005 (ip), vehicle: saline 100 % of control

Cc1nc2ccccc2c(=O)n1-c1nc2ccccc2s1
inactive: [10] 92 % of control | [11] 89 % of control and 90 % of control | [12] 103 % of control

NC(=O)/C(N=Nc1cc(S(=O)(=O)O)ccc1Cl)=N\Nc1cc(S(=O)(=O)O)ccc1Cl
inactive: [1] 100 % of control | [2] 91 % of control | [3] 94 % of control

O=S(=O)(Nc1ccc2ccc(NS(=O)(=O)N3CCCCC3)cc2c1)N1CCCCC1
inactive: [15] 104 % of control | [16] 95 % of control | [17] 100 % of control

CC1(C(=O)O)C2[Se]c3cc[se]c3C2C1(C)C(=O)O (stereo not given)
inactive: [15] 100 % of control | [16] 100 % of control | [17] 104 % of control

COc1ccc(C(Cc2ccccc2)NCCNCCO)cc1 (stereo not given)
inactive: [1] 101 % of control | [2] 101 % of control

c1cnc2c3cnc4sccc4c3nn2c1
inactive: dose: 100.0 mg/kg/injection, schedule: Q04DX002 (ip), vehicle: saline with Tween-80 93 % of control | dose: 200.0 mg/kg/injection, schedule: Q04DX002 (ip), vehicle: saline with Tween-80 88 % of control | dose: 400.0 mg/kg/injection, schedule: Q04DX002 (ip), vehicle: saline with Tween-80 93 % of control

CCc1cc(-c2cc(CC)nc(N)n2)nc(N)n1
inactive: [13] 97 % of control | [18] 104 % of control | dose: 240.0 mg/kg/injection, schedule: Q01DX005 (ip), vehicle: saline 100 % of control

CN=C(N)N/N=C/COc1ccc(C)cc1
inactive: [13] 92 % of control | [18] 94 % of control

c1ccc(/C(=N\Nc2ccc3ccccc3n2)c2ccccn2)cc1
inactive: [15] 110 % of control | [16] 94 % of control | [17] 100 % of control

NN(C(=O)c1ccccc1)C1CCCCC1
inactive: dose: 12.5 mg/kg/injection, schedule: Q04DX003 (ip), vehicle: saline 95 % of control | dose: 25.0 mg/kg/injection, schedule: Q04DX003 (ip), vehicle: saline 104 % of control | dose: 50.0 mg/kg/injection, schedule: Q04DX003 (ip), vehicle: saline 100 % of control

O=C(CCSCCC(=O)N/N=C/C(O)C(O)C(O)CO)N/N=C/C(O)C(O)C(O)CO (stereo not given)
inactive: [1] 103 % of control and 97 % of control | [2] 99 % of control and 94 % of control | [3] 99 % of control and 95 % of control

O=[N+]([O-])c1ccc2c(c1)nc(-c1ccccn1)n2CCc1ccncc1
inactive: dose: 25.0 mg/kg/injection, schedule: Q01DX005 (ip), vehicle: Klucel (hydroxypropylcellulose) (HPC) 95 % of control | [1] 94 % of control | [2] 92 % of control | [3] 91 % of control

Cc1ccc2cccc(OC(=O)c3c(F)cccc3Cl)c2n1
inactive: [1] 99 % of control | [2] 96 % of control | [3] 99 % of control

C=CCc1c2[n+](cc3c(OC)c(OC)ccc13)CCc1cc3c(cc1-2)OCO3
inactive: dose: 0.4 mg/kg/injection, schedule: Q01DX005 (ip), vehicle: saline 107 % of control and 92 % of control | dose: 0.8 mg/kg/injection, schedule: Q01DX005 (ip), vehicle: saline 99 % of control and 111 % of control | dose: 1.6 mg/kg/injection, schedule: Q01DX005 (ip), vehicle: saline 100 % of control and 103 % of control
